pIC50: −log10 of the molar value.
Columns and labels:
Format in all cases: functional, organism-based
Settings in all cases: Human immunodeficiency virus 1, HeLa
[1] = system: Human immunodeficiency virus 1; test: Antiviral activity against NNRTI-resistant HIV1 with reverse transcriptase K103N/L100I mutant in HeLa cells by MAGI assay
[2] = system: Human immunodeficiency virus 1; test: Antiviral activity against NNRTI-resistant HIV1 with reverse transcriptase K103N/P225H mutant in HeLa cells by MAGI assay
[3] = system: Human immunodeficiency virus 1; test: Antiviral activity against wild type HIV1 in HeLa cells by MAGI assay
[4] = system: Human immunodeficiency virus 1; test: Antiviral activity against NNRTI-resistant HIV1 with reverse transcriptase Y181C mutant in HeLa cells by MAGI assay
[5] = system: Human immunodeficiency virus 1; test: Antiviral activity against NNRTI-resistant HIV1 with reverse transcriptase K103N mutant in HeLa cells by MAGI assay
[6] = system: Human immunodeficiency virus 1; test: Antiviral activity against NNRTI-resistant HIV1 with reverse transcriptase V106A mutant in HeLa cells by MAGI assay
[7] = system: Human immunodeficiency virus 1; test: Antiviral activity against NNRTI-resistant HIV1 with reverse transcriptase Y188L mutant in HeLa cells by MAGI assay
[8] = system: Human immunodeficiency virus 1; test: Antiviral activity against NNRTI-resistant HIV1 with reverse transcriptase L100I mutant in HeLa cells by MAGI assay
[9] = system: Human immunodeficiency virus 1; test: Antiviral activity against NNRTI-resistant HIV1 with reverse transcriptase G190A mutant in HeLa cells by MAGI assay
[10] = system: Human immunodeficiency virus 1; test: Antiviral activity against NNRTI-resistant HIV1 with reverse transcriptase G190S mutant in HeLa cells by MAGI assay
[11] = system: Human immunodeficiency virus 1; test: Antiviral activity against NNRTI-resistant HIV1 with reverse transcriptase G190E mutant in HeLa cells by MAGI assay
[12] = system: Human immunodeficiency virus 1; test: Antiviral activity against NNRTI-resistant HIV1 with reverse transcriptase V106M mutant in HeLa cells by MAGI assay
[13] = system: Human immunodeficiency virus 1; test: Antiviral activity against NNRTI-resistant HIV1 with reverse transcriptase V108I mutant in HeLa cells by MAGI assay
[14] = system: Human immunodeficiency virus 1; test: Antiviral activity against NNRTI-resistant HIV1 with reverse transcriptase V106I mutant in HeLa cells by MAGI assay
[15] = system: Human immunodeficiency virus 1; test: Antiviral activity against NNRTI-resistant HIV1 with reverse transcriptase K101E mutant in HeLa cells by MAGI assay
[16] = system: Human immunodeficiency virus 1; test: Antiviral activity against NNRTI-resistant HIV1 with reverse transcriptase E138K mutant in HeLa cells by MAGI assay
[17] = system: Human immunodeficiency virus 1; test: Antiviral activity against NNRTI-resistant HIV1 with reverse transcriptase P236L mutant in HeLa cells by MAGI assay
[18] = system: Human immunodeficiency virus 1; test: Antiviral activity against NNRTI-resistant HIV1 with reverse transcriptase Y188C mutant in HeLa cells by MAGI assay
[19] = system: Human immunodeficiency virus 1; test: Antiviral activity against NNRTI-resistant HIV1 with reverse transcriptase K103N/G190A mutant in HeLa cells by MAGI assay
[20] = system: Human immunodeficiency virus 1; test: Antiviral activity against NNRTI-resistant HIV1 with reverse transcriptase K103N/V108I mutant in HeLa cells by MAGI assay
[21] = system: Human immunodeficiency virus 1; test: Antiviral activity against NNRTI-resistant HIV1 with reverse transcriptase K103N/Y181C mutant in HeLa cells by MAGI assay
[22] = system: Human immunodeficiency virus 1; test: Antiviral activity against NNRTI-resistant HIV1 with reverse transcriptase V106A/Y181C mutant in HeLa cells by MAGI assay
[23] = system: Human immunodeficiency virus 1; test: Antiviral activity against NNRTI-resistant HIV1 with reverse transcriptase V108I/Y181C mutant in HeLa cells by MAGI assay
[24] = system: Human immunodeficiency virus 1; test: Antiviral activity against NNRTI-resistant HIV1 with reverse transcriptase V106I/Y181C mutant in HeLa cells by MAGI assay
[25] = system: Human immunodeficiency virus 1; test: Antiviral activity against NNRTI-resistant HIV1 with reverse transcriptase P225H mutant in HeLa cells by MAGI assay

| Compound | pIC50 [1] | pIC50 [2] | pIC50 [3] | pIC50 [4] | pIC50 [5] | pIC50 [6] | pIC50 [7] | pIC50 [8] | pIC50 [9] | pIC50 [11] | pIC50 [13] | pIC50 [14] | pIC50 [15] | pIC50 [16] | pIC50 [17] | pIC50 [18] | pIC50 [20] | pIC50 [21] | pIC50 [22] | pIC50 [24] | other results |
| --- | --- | --- | --- | --- | --- | --- | --- | --- | --- | --- | --- | --- | --- | --- | --- | --- | --- | --- | --- | --- | --- |
| Cc1cc(S(N)(=O)=O)ccc1NC(=O)COc1ccc(Cl)cc1C(=O)c1cc(Cl)cc(C#N)c1 | 9.05 | 9.15 | 9.70 | 9.40 | 9.40 | 8.96 | 7.85 | 9.52 | 9.22 | 9.40 | 9.15 | 9.10 | 9.22 | 8.80 | 9.40 | 10.40 | 9.05 | 8.92 | 9.00 | 8.42 | pIC50 [10]: 9.15; pIC50 [12]: 9.40; pIC50 [19]: 8.48; pIC50 [23]: 9.22 |
| Cc1cc(S(N)(=O)=O)ccc1NC(=O)COc1ccc(Cl)cc1C(=O)c1cc(F)cc(C(F)(F)F)c1 | 8.55 | 8.85 | 8.92 | 8.68 | 8.77 | 8.03 | 7.18 | 8.96 | 8.40 | 8.41 | 8.74 | 8.64 | 8.51 | 8.57 | 8.47 | 9.52 | 8.59 | 8.48 | 7.89 | 8.00 | pIC50 [25]: 9.15; pIC50 [19]: 7.89; pIC50 [23]: 8.49 |
| O=C(COc1ccc(Cl)cc1C(=O)c1ccccc1)Nc1ccccc1 | 6.57 | 7.25 | 8.70 | 6.79 | 7.60 | 6.16 | < 5.70 | 7.68 | 7.51 | 8.08 | 7.72 | 7.74 | 7.89 | 7.57 | 8.27 | 6.91 | 6.46 | 5.98 | 6.04 | 5.72 | pIC50 [10]: 6.87; pIC50 [12]: 6.81; pIC50 [25]: 8.48; pIC50 [19]: 6.18; pIC50 [23]: 6.20 |
| O=C1Nc2ccc(Cl)cc2C(C#CC2CC2)(C(F)(F)F)O1 (single isomer, unassigned) [EFAVIRENZ] | 5.92 | – | 9.40 | 9.10 | 7.77 | 9.10 | 6.81 | 7.68 | 8.23 | 9.00 | 8.74 | 9.05 | 8.64 | 8.92 | 9.22 | 8.92 | 7.03 | 7.36 | 8.70 | 8.52 | pIC50 [10]: 7.05; pIC50 [12]: 8.14; pIC50 [25]: 8.89; pIC50 [23]: 8.57 |
| CC(C)Nc1cccnc1N1CCN(C(=O)c2cc3cc(NS(C)(=O)=O)ccc3[nH]2)CC1 [DELAVIRDINE] | < 5.70 | < 5.70 | 7.06 | – | 5.80 | 6.12 | – | 6.11 | 7.68 | – | – | 7.66 | 6.27 | – | < 5.70 | 5.79 | < 5.70 | < 5.70 | < 5.70 | 6.03 | pIC50 [19]: 6.14 |
| Cc1ccnc2c1NC(=O)c1cccnc1N2C1CC1 [NEVIRAPINE] | < 5.70 | < 5.70 | 7.28 | < 5.70 | < 5.70 | 5.73 | < 5.70 | 6.52 | < 5.70 | 7.08 | 6.53 | 7.05 | 6.39 | 7.15 | 7.23 | 6.10 | < 5.70 | < 5.70 | < 5.70 | < 5.70 | pIC50 [10]: < 5.70; pIC50 [12]: < 5.70; pIC50 [25]: 6.93; pIC50 [19]: < 5.70; pIC50 [23]: < 5.70 |
